Laboratory results from patent publication US6900217B2, “Substituted 6,5-hetero-bicyclic derivatives” (Pfizer Inc, priority 1996, dated 2005).

Compound CCC(CC)Nc1c(Br)c(CBr)nc2c1nnn2-c1c(C)cc(C)cc1C [Example 6, [6-Bromo-5-bromomethyl-3-(2,4,6-trimethyl-phenyl)-3H-[1,2,3]triazolo[4,5-b]pyridin-7-yl]-(1-ethyl-propyl)-amine] has a melting point of 123 to 125 °C.
